Assay results as given in patent publication US20190248739A1 (NEWLINK GENETICS CORPORATION, priority 2015, published 2019).
Counter-ions that a name gives are not always drawn. Like-named read-outs stand apart in the source and are kept apart here.

How the values were obtained:
[1] = pharmacokinetic testing of indoximod prodrugs in liquid formulation in mice; details: for change in indoximod AUC versus indoximod / change in indoximod Cmax versus indoximod: mice, oral, 50 mg/kg; for AUC(0-inf) / Cmax / Tmax / half-life: mouse, plasma, po; for % Change in Norm. Cmax / % Increase in Norm AUC: vs indoximod, Mouse, PO solution, salt form FB
Method: Blood samples (0.1-0.2 mL) were collected from the femoral artery port from rats or by retro-orbital bleeding from mice and plasma was immediately collected by centrifugation and stored on dry ice to avoid prodrug hydrolysis after plasma collection. […] The pharmacokinetic parameters reflect the average of individual parameter values obtained from each individual rat (n) or one common parameter from a single pharmacokinetic curve derived from blood samples obtained from a group of mice (n).

[2] = pharmacokinetic testing of indoximod prodrugs in liquid formulation in rats; format: in vivo; details: oral solution, 50 mg/kg
[3] = hygroscopicity and stability of indoximod and its salts; format: physicochemical; details: for Hygroscopicity (0-80% RH): Table 2, in % (unit assumed)
[4] = crossover pharmacokinetic study of indoximod free base, salts and SDD in cynomolgus monkeys; format: in vivo; details: for AUC(0-t): read-out: AUC(0 −> 48 h)
Method: The SDD suspension formulations were prepared in 0.5% methylcellulose (Methocel).

[5] = pharmacokinetic testing of indoximod salts in capsule formulation in rats; format: in vivo; details: capsules
Method: Three dose levels were investigated: 37, 185 or 500 μmol/kg.
Capsules were manually filled and the composition uniformity of a representative sample of capsules from each batch was verified by weight and by LC-MS/MS to determine the average indoximod content.
(§1) Rats were fasted 16 h prior to dosing to eliminate any confounding food effects, and food was returned 2 h after dosing.

[6] = solubility of indoximod and its salts in water, buffers and SGF; format: physicochemical; details: for pH of the SGF solution (in brackets) / Solubility (25° C., mg/mL) SGF / pH of the water solution (in brackets) / Solubility (25° C., mg/mL) Water: 25° C.; for pH of the SGF solution (in brackets): SGF solubility test; for pH of the water solution (in brackets): water solubility test
[7] = human pharmacokinetics of oral indoximod; format: in vivo; details: plasma
[8] = pharmacokinetic testing of indoximod prodrug salts in solid capsule formulation in rats; format: in vivo; details: for % Change Cmax / % Change in AUC: vs indoximod free base
Method: These blends were formulated so that each capsule contained the same molar dose of each prodrug. […] The composition and uniformity of a representative sample of capsules from each batch was verified by weight and by LC-MS/MS to determine the average indoximod or prodrug content.
as §1

[9] = test system: ectopic melanoma, colon and lung tumors, breast tumor models; details: cited from earlier work
[10] = in-vitro dissolution test of SDD formulations in simulated gastric buffer (GB) and simulated intestinal fluid (SIF); format: physicochemical
Method: In this study, SDD formulations were made by two methods: hot process spray dry—formulation solution heated up to 110° C. before spraying dry, and basic spray dry—formulation pH raised up to ˜11.5 (room temperature) before spraying dry. The performance of each SDD formulation was investigated by in-vitro dissolution test in simulated gastric buffer (GB) and simulated intestinal fluid (SIF). […] In addition, higher drug load in the powder was preferred since it could decrease the dose amount of the final formulation. Based on all these criteria, two SDD formulations were selected for further in vivo PK studies in monkeys.

[11] = indoximod plasma exposure in murine antitumor experiments; format: in vivo; details: mice; for exposure: ~500 mg/kg/day or oral 200 mg/kg bid
[12] = pharmacokinetic testing of indoximod prodrug salts in solid capsule formulation in cynomolgous monkeys
[13] = both dose levels (275 and 825 μmol/kg)
[14] = 37 μmol/kg, listed as Indoximod hydrochloride salt
[15] = 185 μmol/kg, listed as Indoximod hydrochloride salt
[16] = 500 μmol/kg, listed as Indoximod hydrochloride salt
[17] = Table 10.1, rats, oral capsules, dose 37 μmol/kg, salt form free base
[18] = Table 10.1, rats, oral capsules, dose 185 μmol/kg, salt form free base
[19] = Table 10.1, rats, oral capsules, dose 500 μmol/kg, salt form free base
[20] = Table 10.2, indoximod, rats, oral capsules, dose 37 μmol/kg, salt form free base
[21] = Table 10.2, indoximod, rats, oral capsules, dose 185 μmol/kg, salt form free base
[22] = Table 10.2, indoximod, rats, oral capsules, dose 500 μmol/kg, salt form free base
[23] = Table 10.2, rats, oral capsules, dose 37 μmol/kg, salt form free base
[24] = Table 10.2, rats, oral capsules, dose 185 μmol/kg, salt form free base
[25] = Table 10.2, rats, oral capsules, dose 500 μmol/kg, salt form free base
[26] = indoximod, cynomolgous monkeys, oral capsules, dose 275 μmol/kg, salt form free base

CCOC(=O)[C@H](N)Cc1cn(C)c2ccccc12 [NLG-1283, ethyl 1-methyl-D-tryptophanate hydrochloride]
change in indoximod AUC versus indoximod [1]: decrease | change in indoximod Cmax versus indoximod [1]: decrease | change in indoximod AUC versus indoximod [2]: increase | change in indoximod Cmax versus indoximod [2]: increase

CC(C)OC(=O)[C@H](N)Cc1cn(C)c2ccccc12 [NLG-1284, isopropyl 1-methyl-D-tryptophanate hydrochloride]
change in indoximod AUC versus indoximod [1]: significant increase | change in indoximod Cmax versus indoximod [1]: significant increase | change in indoximod AUC versus indoximod [2]: does not produce a significant increase | change in indoximod Cmax versus indoximod [2]: does not produce a significant increase

Cn1cc(C[C@@H](N)C(=O)O)c2ccccc21 [indoximod HCl, (R)-1-carboxy-2-(1-methyl-1H-indol-3-yl)ethan-1-aminium chloride]
Hygroscopicity (0-80% RH) ([3]; listed as HCl Salt): 0.017 | increase in Cmax compared to indoximod free base capsules [4, 13]: 31-65% | increase in exposure compared to indoximod free base capsules [4, 13]: 37-53% | % Increase over indoximod FB (AUC) ([4]; oral, 275 μmol/kg): 53% | % Increase over indoximod FB (Cmax) ([4]; oral, 275 μmol/kg): 65% | AUC(0 −> 48 h) ([4]; oral, 275 μmol/kg): 101 ± 18 µM·h | Cmax ([4]; oral, 275 μmol/kg): 21.3 ± 8.9 µM | % Increase over indoximod FB (AUC) ([4]; oral, 825 μmol/kg): 37% | % Increase over indoximod FB (Cmax) ([4]; oral, 825 μmol/kg): 31% | AUC(0 −> 48 h) ([4]; oral, 825 μmol/kg): 173 ± 75 µM·h | Cmax ([4]; oral, 825 μmol/kg): 33.4 ± 12 µM | % Increase over indoximod Free Base (AUC) ([5]; 37 μmol/kg): −23% | % Increase over indoximod Free Base (Cmax) ([5]; 37 μmol/kg): −40% | AUC(0 −> ∞) ([5]; 37 μmol/kg): 299 ± 77 µM·h | Cmax ([5]; 37 μmol/kg): 9.5 ± 2 µM | % Increase over indoximod Free Base (AUC) [5, 14]: did not show a significant change | % Increase over indoximod Free Base (Cmax) [5, 14]: non-statistically significant decrease | % Increase over indoximod Free Base (AUC) ([5]; 185 μmol/kg): 38% | % Increase over indoximod Free Base (Cmax) ([5]; 185 μmol/kg): 84% | AUC(0 −> ∞) ([5]; 185 μmol/kg): 1493 ± 728 µM·h | Cmax ([5]; 185 μmol/kg): 38.4 ± 10 µM | % Increase over indoximod Free Base (AUC) [5, 15]: significant increase | % Increase over indoximod Free Base (Cmax) [5, 15]: statistically significant increase | % Increase over indoximod Free Base (AUC) ([5]; 500 μmol/kg): −6% | % Increase over indoximod Free Base (Cmax) ([5]; 500 μmol/kg): −42% | AUC(0 −> ∞) ([5]; 500 μmol/kg): 2706 ± 847 µM·h | Cmax ([5]; 500 μmol/kg): 44.4 ± 8 µM | % Increase over indoximod Free Base (AUC) [5, 16]: did not show a significant change | % Increase over indoximod Free Base (Cmax) [5, 16]: statistically significant decrease | pH of the SGF solution (in brackets) ([6]; listed as HCl Salt): 1.03 | Solubility (25° C., mg/mL) SGF ([6]; listed as HCl Salt): > 200 mg/mL | Solubility (25° C., mg/mL) SGF ([6]; listed as hydrochloride salt): > 200 mg/mL | pH of the water solution (in brackets) ([6]; listed as HCl Salt): 1.06 | Solubility (25° C., mg/mL) Water ([6]; listed as HCl Salt): > 200 mg/mL | Solubility (25° C., mg/mL) Water ([6]; listed as hydrochloride salt): > 200 mg/mL

Cn1cc(C[C@@H](N)C(=O)O)c2ccccc21 [indoximod, 1-methyl-D-tryptophan, reference compound]
Tmax [7]: ~3 h | half-life [7]: ~10 h | AUC(0-t) ([7]; patients, up to 800 mg/dose, read-out: drug exposure (AUC(0-last))): ~100 µM·h | Cmax ([7]; po, 800 mg/dose, patients, about 800 mg/dose, read-out: maximum plasma concentration (Cmax)): 15 µM | AUC(0-inf) ([7]; ~800 mg/dose): 100 µM·h | % Change Cmax [8, 17]: 0% | % Change in AUC [8, 17]: 0% | % Change Cmax [8, 18]: 0% | % Change in AUC [8, 18]: 0% | % Change Cmax [8, 19]: 0% | % Change in AUC [8, 19]: 0% | AUC(0->∞) [8, 20]: 390 ± 166 µM·h | Cmax [8, 20]: 15.9 ± 8 µM | AUC(0->∞) [8, 21]: 1080 ± 478 µM·h | Cmax [8, 21]: 20.8 ± 4 µM | AUC(0->∞) [8, 22]: 2871 ± 1379 µM·h | Cmax [8, 22]: 76.2 ± 25 µM | % Change Cmax [8, 23]: 0% | % Change in AUC [8, 23]: 0% | % Change Cmax [8, 24]: 0% | % Change in AUC [8, 24]: 0% | % Change Cmax [8, 25]: 0% | % Change in AUC [8, 25]: 0% | Cmax ([8]; Table 10.3, indoximod, rats, oral capsules, dose 37 μmol/kg, salt form free base): 15.9 ± 8 µM | Cmax ([8]; Table 10.3, indoximod, rats, oral capsules, dose 185 μmol/kg, salt form free base): 20.8 ± 4 µM | Cmax ([8]; Table 10.3, indoximod, rats, oral capsules, dose 500 μmol/kg, salt form free base): 76.2 ± 25 µM | AUC(0-inf) ([8]; rat, plasma, po, 37 umol/kg): 390 ± 166 µM·h | Cmax ([8]; rat, plasma, po, 37 umol/kg): 15.9 ± 8 µM | AUC(0-inf) ([8]; rat, plasma, po, 185 umol/kg): 1080 ± 478 µM·h | Cmax ([8]; rat, plasma, po, 185 umol/kg): 20.8 ± 4 µM | AUC(0-inf) ([8]; rat, plasma, po, 500 umol/kg): 2870 ± 1380 µM·h | Cmax ([8]; rat, plasma, po, 500 umol/kg): 76.2 ± 25 µM | antitumor effect ([9]; in combination with chemotherapy): demonstrates antitumor effects | antitumor effect ([9]; melanoma models, combination with anti-CTLA4 (ipilimumab)): synergistic antitumor effect | AUC(0-inf) ([1]; 10 mg/kg): 34 µM·h | Cmax ([1]; 10 mg/kg): 9 µM | Tmax ([1]; 10 mg/kg): 0.5 h | half-life ([1]; 10 mg/kg): 1.8 h | AUC(0-inf) ([1]; 100 mg/kg): 325 µM·h | Cmax ([1]; 100 mg/kg): 43 µM | Tmax ([1]; 100 mg/kg): 1 h | half-life ([1]; 100 mg/kg): 3.5 h | % Change in Norm. Cmax ([1]; dose 10 mg/kg): 0% | % Increase in Norm AUC ([1]; dose 10 mg/kg): 0% | % Change in Norm. Cmax ([1]; dose 100 mg/kg): 0% | % Increase in Norm AUC ([1]; dose 100 mg/kg): 0% | hygroscopicity (weight gain) ([3]; 0-80%RH): 0.09% | stability in solution ([3]; 0.1 N HCl and 50 mM phosphate buffers pH 2-8, 25° C., 24 hours): stable | chemical stability of the solid powder form ([3]; 25° C/60%RH, 40° C., 40° C/75%RH, 60° C. and 70° C. for 4 weeks): chemically stable | Hygroscopicity (0-80% RH) ([3]; listed as Free base): 0.09 | Cmax ([4]; male, cynomolgus monkey, plasma, po, 275 umol/kg): 12.9 ± 3.3 µM | AUC(0-t) ([4]; male, cynomolgus monkey, plasma, po, 275 umol/kg, oral, 275 μmol/kg): 66 ± 17 µM·h | Cmax ([4]; male, cynomolgus monkey, plasma, po, 825 umol/kg): 25.6 ± 12.8 µM | AUC(0-t) ([4]; male, cynomolgus monkey, plasma, po, 825 umol/kg, oral, 825 μmol/kg): 127 ± 73 µM·h | AUC(0-inf) ([5]; rat, plasma, po, 37 umol/kg): 390 ± 166 µM·h | AUC(0-inf) ([5]; rat, plasma, po, 185 umol/kg): 1080 ± 478 µM·h | Cmax ([5]; rat, plasma, po, 185 umol/kg): 20.8 ± 4 µM | AUC(0-inf) ([5]; rat, plasma, po, 500 umol/kg): 2870 ± 1380 µM·h | UltraC90 ([10]; SIF, 90 min, after ultracentrifugation): 1,849 μg/mL | UltraC1200 ([10]; SIF, 1200 min, after ultracentrifugation): 1,854 μg/mL | CmaxGB ([10]; maximum indoximod concentration, dissolved in GB for 30 min): 5,154 μg/mL | Cmax90 ([10]; maximum indoximod concentration, dissolved in SIF for 90 min): 2,213 μg/mL | pH of the SGF solution (in brackets) ([6]; listed as Free base): 2.32 | Solubility (25° C., mg/mL) SGF ([6]; listed as Free base): 3.6 mg/mL | pH of the water solution (in brackets) ([6]; listed as Free base): 6.03 | Solubility (25° C., mg/mL) Water ([6]; listed as Free base): 1.8 mg/mL | solubility ([6]; aqueous solutions, buffered or un-buffered, pH 2, aqueous buffer, pH 2-8): 1.8 to 2 mg/mL | exposure [11]: greater than 300 μM.h | exposure ([11]; listed as Indoximod): > 300 µM·h | Cmax ([11]; mouse, plasma, drinking water 3 mg/mL (~500 mg/kg/day) or oral 200 mg/kg bid): > 20 µM | AUC(0->∞) ([12]; indoximod, cynomolgous monkeys, oral capsules, dose 92 μmol/kg, salt form free base): 38.5 ± 4 µM·h | AUC(0->∞) [12, 26]: 74.9 ± 5 µM·h | Cmax [12, 26]: 17.5 ± 3 µM | Cmax ([12]; monkey, blood, po, 92 umol/kg): 8.2 ± 0.4 µM | AUC(0-inf) ([12]; monkey, blood, po, 875 umol/kg): 165 ± 52 µM·h | Cmax ([12]; monkey, blood, po, 875 umol/kg): 27.8 ± 8 µM
